Results on 51 compounds are retold here after patent publication US20260272944A1, “PYRIDO[3,4-D]PYRIMIDINONE AND PYRIMDLLNE ARYL HYDROCARBON RECEPTOR ANTAGONISTS AND USES THEREOF” (ALLIANTHERA (SUZHOU) BIOPHARMACEUTICAL CO., LTD., priority 2023, published 2026).

As usually defined, the inhibition is the relative decrease from the control value, in per cent.

The structures appear in SMILES notation.

This assay addresses T1, Human Aryl Hydrocarbon Receptor (AhR) (Homo sapiens, UniProt P35869).
T1 construct: purchased INDIGO Bioscience IB06001-32; host or cells: AhR Reporter Cell (the kit's proprietary reporter cells)
T1 sequence (P35869 11-848): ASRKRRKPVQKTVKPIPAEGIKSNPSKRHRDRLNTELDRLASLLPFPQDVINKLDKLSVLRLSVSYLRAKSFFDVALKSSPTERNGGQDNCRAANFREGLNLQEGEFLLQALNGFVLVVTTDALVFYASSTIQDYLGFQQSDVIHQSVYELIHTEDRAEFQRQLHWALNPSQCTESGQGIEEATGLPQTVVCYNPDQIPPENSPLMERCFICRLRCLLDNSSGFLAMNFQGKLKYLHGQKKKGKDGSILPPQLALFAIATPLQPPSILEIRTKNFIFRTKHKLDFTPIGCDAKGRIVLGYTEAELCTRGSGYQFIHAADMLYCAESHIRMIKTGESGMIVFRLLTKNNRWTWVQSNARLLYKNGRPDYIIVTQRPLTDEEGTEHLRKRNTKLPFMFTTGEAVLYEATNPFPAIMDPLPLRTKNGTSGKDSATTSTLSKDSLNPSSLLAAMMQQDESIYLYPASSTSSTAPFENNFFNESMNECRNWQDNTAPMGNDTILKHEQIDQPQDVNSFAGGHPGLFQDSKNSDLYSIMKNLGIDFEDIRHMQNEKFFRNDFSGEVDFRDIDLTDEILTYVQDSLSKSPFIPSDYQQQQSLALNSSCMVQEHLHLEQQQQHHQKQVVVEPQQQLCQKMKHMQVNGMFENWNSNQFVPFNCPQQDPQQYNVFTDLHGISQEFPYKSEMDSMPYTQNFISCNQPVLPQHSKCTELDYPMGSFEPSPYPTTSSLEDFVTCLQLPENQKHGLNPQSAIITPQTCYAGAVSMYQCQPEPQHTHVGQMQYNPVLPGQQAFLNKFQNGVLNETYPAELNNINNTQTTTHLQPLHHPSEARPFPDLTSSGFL
The assay is described as follows: AhR reporter assay (Human Aryl Hydrocarbon Receptor (AhR) Reporter Assay System, INDIGO Bioscience). In kind it is cell-based. The following applies: AHR inhibition at 10 nM test compound; AhR Reporter Cells activated with 200 μM kynurenic acid, 24 hours; firefly luciferase; normalized by positive and negative controls. As for the experimental part:
The AhR reporter assay was performed following the protocol of the Human Aryl Hydrocarbon Receptor (AhR) Reporter Assay System (INDIGO Bioscience, #IB06001-32). AhR Reporter Cell was thawed and pre-incubated in Cell Recovery Medium (CRM) for 6 hours. The media was then removed and the cells were incubated with Compound Screening Medium (CSM) supplemented with 200 μM kynurenic acid for 24 hours in the absence (negative control) or presence of 10 nM test compounds. For positive inhibition control, cells activated with 200 μM kynurenic acid were incubated in the presence of literature AHR antagonists; alternatively un-activated cells were used as positive inhibition control. Following 24 hours incubation, the media was removed and Luciferase Detection Reagent (LDR) added. The firefly luciferase activity was quantified using a plate reader. Results were normalized by positive and negative controls.
The results of AHR inhibition at 10 nM for compounds as disclosed herein is reported in the below table.
(In general: In a reporter assay the amount or activity of a reporter protein is the signal.)
Turning to `C[C@@H](CO)NC(=O)c1cc(-c2ccc(NC(=O)CN3CCOCC3)cc2)nc(-c2cnn(C)c2)n1` [Compound 98], the inhibition at 0.01 µM came out at 5%.

On to `C[C@@H](CO)n1cnc2c(-c3cnn(C)c3)nc(N3CC=C(c4ccc(F)cc4)CC3)cc2c1=O` [Compound 16], for which the inhibition at 0.01 µM turned out to be 82%.

For the compound `C[C@@H](CO)NC(=O)c1cc(N2CCN(c3ccc(F)cc3)CC2)nc(-c2cccc(F)c2)n1` [Compound 66], the inhibition at 0.01 µM was 69%.

As for `C[C@@H](CO)n1cnc2c(-c3cnn(C)c3)nc(-c3ccc(C4=CCOCC4)nc3)cc2c1=O` [Compound 9], the inhibition at 0.01 µM turned out to be 29%.

With `C[C@@H](CO)n1cnc2c(-c3cnn(C)c3)nc(N3CCN(c4ccc(F)cc4)CC3)cc2c1=O` [Compound 14], the inhibition at 0.01 µM was determined as 85%.

For `C[C@@H](CO)n1cnc2c(-c3cnn(C)c3)nc(-c3ccc(N4CC5CCC(C4)O5)cc3)cc2c1=O` [Compound 4], the inhibition at 0.01 µM is 53%.

Consider `C[C@@H](CO)n1cnc2c(-n3nc(N)ccc3=O)nc(-c3cncc(F)c3)cc2c1=O` [Compound 128], for which the inhibition at 0.01 µM worked out at 4%.

`C[C@@H](CO)n1cnc2c(-c3cnn(C)c3)nc(-c3ccc(N4CCOCC4)nc3)cc2c1=O` [Compound 25]: the inhibition at 0.01 µM amounted to 8%.

Take `C[C@@H](CO)NC(=O)c1cc(-c2ccc(-c3ccc(Cl)cc3)nc2)nc(-c2cnn(C)c2)n1` [Compound 70]: the inhibition at 0.01 µM came to 87%.

With `C[C@@H](CO)NC(=O)c1cc(N2Cc3cccnc3C2)nc(-c2cnn(C)c2)n1` [Compound 117], the inhibition at 0.01 µM amounted to 46%.

`C[C@@H](CO)n1cnc2c(-c3cnn(C)c3)nc(-c3ccc(NC(=O)CN4CCOCC4)nc3)cc2c1=O` [Compound 39]: the inhibition at 0.01 µM is -4%.

Regarding `C[C@@H](CO)n1cnc2c(-c3cnn(C)c3)nc(/C=C/c3ccc(F)cc3)cc2c1=O` [Compound 20], the inhibition at 0.01 µM is 70%.

In the case of `C[C@@H](CO)NC(=O)c1cc(N2Cc3ccccc3C2=O)nc(-c2cnn(C)c2)n1` [Compound 64], the inhibition at 0.01 µM came to 49%.

As for `C[C@@H](CO)NC(=O)c1cc(-c2ccc(C(=O)N3CCC(N)C3)cc2)nc(-c2cnn(C)c2)n1` (stereo partly drawn) [Compound 105], the inhibition at 0.01 µM was -3%.

As to `C[C@@H](CO)n1cnc2c(-c3cnn(C)c3)nc(-c3ccc(-c4cccc(F)c4)nc3)cc2c1=O` [Compound 12], the inhibition at 0.01 µM is 72%.

As to `C[C@@H](CO)n1cnc2c(-c3cnn(C)c3)nc(-c3ccc(-c4ccc(=O)n(C)c4)cc3)cc2c1=O` [Compound 44], the inhibition at 0.01 µM was found to be 44%.

For the compound `C[C@@H](CO)n1cnc2c(-c3cnn(C)c3)nc(-c3ccc(C4CCOCC4)cc3)cc2c1=O` [Compound 5], the inhibition at 0.01 µM is 40%.

For `C[C@@H](CO)n1cnc2c(-c3cnn(C)c3)nc(-c3ccc(C(=O)N4CCNCC4)cc3)cc2c1=O` [Compound 32], the inhibition at 0.01 µM is -16%.

Regarding `C[C@@H](CO)n1cnc2c(-c3cnn(C)c3)nc(N3CCN(c4ccccc4)CC3)cc2c1=O` [Compound 123], the inhibition at 0.01 µM is 91%.

With `C[C@@H](CO)NC(=O)c1cc(-c2ccc(N3CCN(S(C)(=O)=O)CC3)cc2)nc(-c2cnn(C)c2)n1` [Compound 91], the inhibition at 0.01 µM came out at 7%.

As to `C[C@@H](CO)n1cnc2c(-c3cnn(C)c3)nc(-c3cnc(N4CCOCC4)nc3)cc2c1=O` [Compound 26], the inhibition at 0.01 µM is 24%.

For the compound `C[C@@H](CO)n1cnc2c(-c3cnn(C)c3)nc(-c3ccc(-c4ccc(Cl)cc4)nc3)cc2c1=O` [Compound 7], the inhibition at 0.01 µM amounted to 90%.

As to `C[C@@H](CO)NC(=O)c1cc(N2CCN(c3ccc(F)cc3)CC2)nc(-c2cnn(C)c2)n1` [Compound 60], the inhibition at 0.01 µM was 21%.

`C[C@@H]1CN(c2ccc(F)cc2)CCN1c1cc(C(=O)N[C@@H](C)CO)nc(-c2cnn(C)c2)n1` [Compound 76]: the inhibition at 0.01 µM was determined as 1%.

With `C[C@@H](CO)n1cnc2c(-c3cnn(C)c3)nc(N3CC4CCC(C3)N4c3ccc(F)cc3)cc2c1=O` [Compound 17], the inhibition at 0.01 µM came out at 35%.

Regarding `C[C@@H](CO)NC(=O)c1cc(-c2ccc(-c3ccc(=O)n(C)c3)cc2)nc(-c2cnn(C)c2)n1` [Compound 112], the inhibition at 0.01 µM was 10%.

Consider `C[C@@H](CO)n1cnc2c(-n3cncc3C3CC3)nc(-c3cncc(F)c3)cc2c1=O` [Compound 129], for which the inhibition at 0.01 µM came to 7%.

`C[C@@H](CO)NC(=O)c1cc(-c2ccc(-c3cccc(F)c3)nc2)nc(-c2cnn(C)c2)n1` [Compound 68]: the inhibition at 0.01 µM worked out at 62%.

As to `Cc1cc(-c2cc3c(=O)n([C@@H](C)CO)cnc3c(-c3cnn(C)c3)n2)ccc1N1CCOCC1` [Compound 57], the inhibition at 0.01 µM was found to be 29%.

For the compound `C[C@@H](CO)n1cnc2c(-c3cnn(C)c3)nc(N3Cc4cccc(F)c4C3)cc2c1=O` [Compound 52], the inhibition at 0.01 µM amounted to 35%.

For `C[C@@H](CO)NC(=O)c1cc(N2CCN(C(=O)c3ccc(F)cc3)CC2)nc(-c2cnn(C)c2)n1` [Compound 75], the inhibition at 0.01 µM was 24%.

For `Cc1nn(C)c2cc(-c3cc(C(=O)N[C@@H](C)CO)nc(-c4cnn(C)c4)n3)ccc12` [Compound 67], the inhibition at 0.01 µM amounted to 33%.

As for `C[C@@H](CO)n1cnc2c(-c3cnn(C)c3)nc(-c3ccc(NC(=O)CN4CCOCC4)cc3)cc2c1=O` [Compound 42], the inhibition at 0.01 µM came to 16%.

As for `C[C@H](NC(=O)c1cc(N2Cc3ccccc3C2)nc(-c2cnn(C)c2)n1)C(=O)O` [Compound 126], the inhibition at 0.01 µM worked out at 5%.

Take `C[C@@H](CO)n1cnc2c(-c3cnn(C)c3)nc(-c3ccc(-c4ccc(F)cc4)nc3)cc2c1=O` [Compound 6]: the inhibition at 0.01 µM worked out at 96%.

Turning to `C[C@@H](CO)NC(=O)c1cc(N2Cc3cccc(F)c3C2)nc(-c2cnn(C)c2)n1` [Compound 88], the inhibition at 0.01 µM is 21%.

On to `C[C@@H](CO)n1cnc2c(-c3cnn(C)c3)nc(N3CCN(c4ncccn4)CC3)cc2c1=O` [Compound 121], for which the inhibition at 0.01 µM turned out to be 4%.

For the compound `C[C@@H](CNS(=O)(=O)C1CC1)NC(=O)c1cc(N2Cc3ccccc3C2)nc(-c2cnn(C)c2)n1` [Compound 127], the inhibition at 0.01 µM is 52%.

Consider `Cc1cc(-c2cc(C(=O)N[C@@H](C)CO)nc(-c3cnn(C)c3)n2)ccc1N1CCOCC1` [Compound 96], for which the inhibition at 0.01 µM amounted to 10%.

As for `C[C@@H](CO)n1cnc2c(-c3cnn(C)c3)nc(-c3ccc(C(=O)N4CCC(N)CC4)cc3)cc2c1=O` [Compound 30], the inhibition at 0.01 µM is -5%.

For `C[C@@H](CO)n1cnc2c(-c3cnn(C)c3)nc(-c3ccc(C(=O)N4CCC(O)CC4)cc3)cc2c1=O` [Compound 35], the inhibition at 0.01 µM stood at 5%.

As to `C[C@H](CO)NC(=O)c1cc(N2Cc3ccccc3C2)nc(-c2cnn(C)c2)n1` [Compound 125], the inhibition at 0.01 µM was 23%.

With `C[C@@H](CO)n1cnc2c(-c3cnn(C)c3)nc(-c3ccc(N4CCCCC4)cc3)cc2c1=O` [Compound 13], the inhibition at 0.01 µM was 64%.

For `C[C@@H](CO)n1cnc2c(-c3cnn(C)c3)nc(-c3ccc(-c4cnc(N)nc4)nc3)cc2c1=O` [Compound 119], the inhibition at 0.01 µM was 2%.

On to `C[C@@H](CO)NC(=O)c1cc(-c2ccc(-c3ccc(F)nc3)nc2)nc(-c2cnn(C)c2)n1` [Compound 69], for which the inhibition at 0.01 µM came out at 60%.

Take `C[C@@H](CO)n1cnc2c(-c3cnn(C)c3)nc(/C=C/c3ccccc3)cc2c1=O` [Compound 2]: the inhibition at 0.01 µM is 51%.

Consider `C[C@@H](CO)n1cnc2c(-c3cnn(C)c3)nc(N3Cc4ccccc4C3)cc2c1=O` [Compound 15], for which the inhibition at 0.01 µM was 99%.

Turning to `C[C@@H](CO)n1cnc2c(-c3cnn(C)c3)nc(-c3ccc(-c4ccc(F)nc4)nc3)cc2c1=O` [Compound 8], the inhibition at 0.01 µM was 83%.

In the case of `C[C@@H](CO)NC(=O)c1cc(-c2ccc(-c3ccccc3F)nc2)nc(-c2cnn(C)c2)n1` [Compound 59], the inhibition at 0.01 µM amounted to 24%.

For `C[C@@H](CO)n1cnc2c(-c3cnn(C)c3)nc(-c3ccc(C(=O)N4CCC(N)C4)cc3)cc2c1=O` (stereo partly drawn) [Compound 34], the inhibition at 0.01 µM is 6%.

For the compound `C[C@@H](CO)NC(=O)c1cc(N2CCN(c3ccc(F)cc3)CC2)nc(-c2cnn(C(F)(F)F)c2)n1` [Compound 65], the inhibition at 0.01 µM turned out to be 7%.
